Experimental data taken from patent US20090035306A1 (KALYPSYS, INC., priority 2006, published 2009).

Target: T1, human TGR5 (Homo sapiens, UniProt Q8TDU6)
T1 construct: expressed in transfected cells
T1 sequence (Q8TDU6 1-330): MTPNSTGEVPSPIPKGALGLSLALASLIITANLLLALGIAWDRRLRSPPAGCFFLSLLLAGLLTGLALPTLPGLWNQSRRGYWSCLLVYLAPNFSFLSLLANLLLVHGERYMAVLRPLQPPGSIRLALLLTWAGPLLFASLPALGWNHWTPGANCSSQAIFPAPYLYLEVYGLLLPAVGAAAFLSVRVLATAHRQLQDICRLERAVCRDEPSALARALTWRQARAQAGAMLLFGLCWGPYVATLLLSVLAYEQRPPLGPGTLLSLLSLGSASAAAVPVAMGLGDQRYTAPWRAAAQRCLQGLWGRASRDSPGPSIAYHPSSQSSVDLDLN
Experiment: cAMP production assay in HEK293 cells stably expressing TGR5 (LANCE TR-FRET)
Format: cell-based
Conditions: 30 minutes stimulation, read-out: cAMP Production in 293-TGR5 Cells EC50
Protocol: HEK293 cells stably expressing TGR5 (HEK293-TGR5) were established by stably transfecting HEK-293 cells with an expression vector (pcDNA 3.1, Invetrogen) inserted with human TGR5 cDNA using Fugene6 (Roche, Indianapolis, Ind.) according to conventional methods. Cells were grown in DMEM (invitrogen, Carlsbad, Calif.) supplemented with 10% FBS, 1% penicillin/streptomycin under geneticin selection. The presence of TGR5 transcripts in these cells was confirmed using branched DNA (bDNA, Genospectra, Inc., Fremont Calif.) following the manufacturer's protocol and using specific probes for human TGR5. cAMP production assay was performed in high throughput 1536 well format using LANCE cAMP detection kit (Perkin Elmer Inc., Boston, Mass.) according to the manufacturer's protocol. Briefly, HEK293-TGR5 cells were harvested using non-enzymatic cell dissociation buffer (Invitrogen, Carlsbad, Calif.) and suspended in DMEM supplemented with 0.1% FBS at a density of 800,000 cells/ml. Alexa antibody was added to the cell suspension, and 4 ul of the mixture was dispensed in white opaque tissue culture treated Greiner 1536 well plates (USA Scientific, Inc., Ocala, Fla.). After an overnight incubation at 37 C in an atmosphere of 10% CO2 and 95% humidity, 1 ul of 5 mM IBMX (Sigma, St. Louis, Mo.) solution in DMEM was dispensed for a final concentration of 1 mM. Cells were then stimulated with test compounds for 30 minutes, after which time 5 ul of detection reagent was added and incubated for 1-7 hrs at room temperature. TR-FRET signal was detected using the Viewlux (Perkin Elmer Inc., Boston Mass.). EC50 values were determined using Graph Pad Prizm analysis (GraphPad Software, Inc). The EC50 values for a wide range of bile acids generated from this assay were in agreement with the values published in the scientific literature. […] The symbol (+) denotes an EC50 value of ≦10 μM while the symbol (−) denotes an EC50 value of >10 μM (see Table 1).

Row | SMILES | EC50
1 | COc1ccc(-c2nc3ccccc3c(=O)n2NCc2ccc(Cl)cc2)cc1OC [Example 62, 3-(4-chlorobenzylamino)-2-(3,4-dimethoxyphenyl)quinazolin-4(3H)-one] | > 10 µM
2 | COc1cccc2c(=O)n(NCc3ccc(Cl)cc3)c(-c3ccc(F)cc3)nc12 [Example 77, 3-(4-Chloro-benzylamino)-2-(4-fluoro-phenyl)-8-methoxy-3H-quinazolin-4-one] | ≤ 10 µM
3 | O=c1c2ccccc2nc(-c2ccc(F)cc2)n1NCc1ccc(C(F)(F)F)cc1 [Example 78, 2-(4-fluorophenyl)-3-(4-(trifluoromethyl)benzylamino)quinazolin-4(3H)-one] | ≤ 10 µM
4 | O=c1c2ccccc2nc(-c2ccc(F)cc2)n1NCc1ccc(Cl)cc1 [Example 79, 3-(4-chlorobenzylamino)-2-(4-fluorophenyl)quinazolin-4(3H)-one] | ≤ 10 µM
5 | O=c1c2ccccc2nc(-c2ccc(F)cc2)n1NCc1ccc(F)cc1F [Example 80, 3-(2,4-difluorobenzylamino)-2-(4-fluorophenyl)quinazolin-4(3H)-one] | ≤ 10 µM
6 | Cc1ccc2c(=O)n(NCc3ccc(Br)cc3)c(-c3ccc(F)cc3)nc2c1 [Example 81, 3-(4-bromobenzylamino)-2-(4-fluorophenyl)-7-methylquinazolin-4(3H)-one] | ≤ 10 µM
7 | Cc1ccc2c(=O)n(NCc3ccc(C(F)(F)F)cc3)c(-c3ccc(F)cc3)nc2c1 [Example 82, 2-(4-fluorophenyl)-7-methyl-3-(4 (trifluoromethyl)benzylamino)quinazolin-4(3H)-one] | > 10 µM
8 | COc1cc2nc(-c3ccc(F)cc3)n(NCc3ccc(Br)cc3)c(=O)c2cc1OC [Example 83, 3-(4-bromobenzylamino)-2-(4-fluorophenyl)-6,7-dimethoxy-quinazolin-4(3H)-one] | > 10 µM
9 | O=c1c2ccccc2nc(-c2ccc(F)cc2)n1NCCc1cccc(Br)c1 [Example 84, 3-(3-bromophenethylamino)-2-(4-fluorophenyl)quinazolin-4(3H)-one] | > 10 µM
10 | O=c1c2ccccc2nc(-c2ccc(F)cc2)n1NCCc1ccc(Br)cc1 [Example 85, 3-(4-bromophenethylamino)-2-(4-fluorophenyl)quinazolin-4(3H)-one] | ≤ 10 µM
11 | O=c1c2ccccc2nc(-c2cccs2)n1NCc1ccc(Br)cc1 [Example 86, 3-(4-bromobenzylamino)-2-(thiophen-2-yl)quinazolin-4(3H)-one] | ≤ 10 µM
12 | O=c1c2ccccc2nc(-c2cccs2)n1NCc1ccc(C(F)(F)F)cc1 [Example 87, 2-(thiophen-2-yl)-3-(4-(trifluoromethyl)benzylamino)quinazolin-4(3H)-one] | ≤ 10 µM
13 | O=c1c2ccccc2nc(-c2cccs2)n1N(Cc1ccc(C(F)(F)F)cc1)Cc1ccc(C(F)(F)F)cc1 [Example 88, 3-(bis(4-(trifluoromethyl)benzyl)amino)-2-(thiophen-2-yl)quinazolin-4(3H)-one] | ≤ 10 µM
14 | O=c1c2ccccc2nc(-c2ccsc2)n1NCc1ccc(Br)cc1 [Example 89, 3-(4-bromobenzylamino)-2-(thiophen-3-yl)quinazolin-4(3H)-one] | ≤ 10 µM
15 | CN(Cc1ccc(Br)cc1)n1c(-c2ccc(F)cc2)nc2ccccc2c1=O [Example 90, 3-((4-bromobenzyl)(methyl)amino)-2-(4-fluorophenyl)quinazolin-4(3H)-one] | ≤ 10 µM
16 | O=c1c2ccccc2nc(-c2ccc(F)cc2)n1NCc1cc(C(F)(F)F)cc(C(F)(F)F)c1 [Example 91, 3-(3,5-bis(trifluoromethyl)benzylamino)-2-(4-fluorophenyl)quinazolin-4(3H)-one] | ≤ 10 µM
17 | O=c1c2ccccc2nc(-c2ccc(F)c(F)c2)n1NCc1ccc(Br)cc1 [Example 92, 3-(4-bromobenzylamino)-2-(3,4-difluorophenyl)quinazolin-4(3H)-one] | ≤ 10 µM
18 | CCN(Cc1ccc(Br)cc1)n1c(-c2ccc(F)cc2)nc2ccccc2c1=O [Example 93, 3-((4-bromobenzyl)(ethyl)amino)-2-(4-fluorophenyl)quinazolin-4(3H)-one] | ≤ 10 µM
19 | CCCN(Cc1ccc(Br)cc1)n1c(-c2ccc(F)cc2)nc2ccccc2c1=O [Example 94, 3-((4-bromobenzyl)(propyl)amino)-2-(4-fluorophenyl)quinazolin-4(3H)-one] | ≤ 10 µM
20 | O=c1c2ccc(O)cc2nc(-c2ccc(F)cc2)n1NCc1ccc(Br)cc1 [Example 95, 3-(4-bromobenzylamino)-2-(4-fluorophenyl)-7-hydroxy quinazolin-4(3H)-one] | ≤ 10 µM
21 | O=c1c2ccccc2nc(-c2cccc(O)c2)n1NCc1ccc(Br)cc1 [Example 96, 3-(4-bromobenzylamino)-2-(3-hydroxyphenyl)quinazolin-4(3H)-one] | ≤ 10 µM

Now from value to molecule:

Row | EC50 | SMILES
22 | ≤ 10 µM | O=c1c2ccccc2nc(-c2cccc(OC(F)(F)F)c2)n1NCc1ccc(Br)cc1 [Example 60, 3-(4-bromobenzylamino)-2-(3-(trifluoromethoxy)phenyl)quinazolin-4(3H)-one]
23 | ≤ 10 µM | O=c1c2ccccc2nc(-c2cccc(OC(F)(F)F)c2)n1NCc1ccc(Cl)cc1 [Example 61, 3-(4-chlorobenzylamino)-2-(3-(trifluoromethoxy)phenyl)quinazolin-4(3H)-one]
24 | ≤ 10 µM | O=c1c2ccccc2nc(-c2ccc3c(c2)OCO3)n1NCc1ccc(Br)cc1 [Example 63, 2-(benzo[d][1,3]dioxol-5-yl)-3-(4-bromobenzylamino)quinazolin-4(3H)-one]
25 | ≤ 10 µM | O=c1c2ccccc2nc(-c2ccc3c(c2)OCO3)n1NCc1ccc(Cl)cc1 [Example 64, 2-(benzo[d][1,3]dioxol-5-yl)-3-(4-chlorobenzylamino)quinazolin-4(3H)-one]
26 | ≤ 10 µM | COc1cc(-c2nc3ccccc3c(=O)n2NCc2ccc(Br)cc2)ccc1C [Example 65, 3-(4-bromobenzylamino)-2-(3-methoxy-4-methylphenyl)quinazolin-4(3H)-one]
27 | ≤ 10 µM | COc1cc(-c2nc3ccccc3c(=O)n2NCc2ccc(Cl)cc2)ccc1C [Example 66, 3-(4-chlorobenzylamino)-2-(3-methoxy-4-methylphenyl)quinazolin-4(3H)-one]
28 | ≤ 10 µM | COc1cc(-c2nc3ccccc3c(=O)n2NCc2ccc(F)cc2)ccc1C [Example 67, 3-(4-fluorobenzylamino)-2-(3-methoxy-4-methylphenyl)quinazolin-4(3H)-one]
29 | ≤ 10 µM | COc1cc(-c2nc3ccccc3c(=O)n2NCc2ccc(C(F)(F)F)cc2)ccc1C [Example 68, 2-(3-methoxy-4-methylphenyl)-3-(4-(trifluoromethyl)benzylamino)quinazolin-4(3H)-one]
30 | ≤ 10 µM | COc1cc(-c2nc3ccccc3c(=O)n2NCc2ccc(F)c(F)c2)ccc1C [Example 69, 3-(3,4-difluorobenzylamino)-2-(3-methoxy-4-methylphenyl)quinazolin-4(3H)-one]
31 | ≤ 10 µM | Cc1cccc2c(=O)n(NCc3ccc(Br)cc3)c(-c3ccc(F)cc3)nc12 [Example 70, 3-(4-bromobenzylamino)-2-(4-fluorophenyl)-8-methylquinazolin-4(3H)-one]
32 | ≤ 10 µM | Cc1cccc2c(=O)n(NCc3ccc(Cl)cc3)c(-c3ccc(F)cc3)nc12 [Example 71, 3-(4-chlorobenzylamino)-2-(4-fluorophenyl)-8-methylquinazolin-4(3H)-one]
33 | ≤ 10 µM | COc1cc(-c2nc3ccccc3c(=O)n2NCc2ccc(Br)cc2)ccc1F [Example 72, 3-(4-bromobenzylamino)-2-(4-fluoro-3-methoxyphenyl)quinazolin-4(3H)-one]
34 | ≤ 10 µM | COc1cc(-c2nc3ccccc3c(=O)n2NCc2ccc(Cl)cc2)ccc1F [Example 73, 3-(4-chlorobenzylamino)-2-(4-fluoro-3-methoxyphenyl)quinazolin-4(3H)-one]
35 | ≤ 10 µM | COc1cc(-c2nc3ccccc3c(=O)n2NCc2ccc(Br)cc2)ccc1Cl [Example 74, 3-(4-Bromo-benzylamino)-2-(4-chloro-3-methoxy-phenyl)-3H-quinazolin-4-one]
36 | ≤ 10 µM | COc1cc(-c2nc3ccccc3c(=O)n2NCc2ccc(Cl)cc2)ccc1Cl [Example 75, 3-(4-Chloro-benzylamino)-2-(4-chloro-3-methoxy-phenyl)-3H-quinazolin-4-one]
37 | ≤ 10 µM | COc1cccc2c(=O)n(NCc3ccc(Br)cc3)c(-c3ccc(F)cc3)nc12 [Example 76, 3-(4-Bromo-benzylamino)-2-(4-fluoro-phenyl)-8-methoxy-3H-quinazolin-4-one]
